From patent US6552072B2, “Use of metal complexes to treat gastrointestinal infections” (Pfylori Limited, priority 1996, dated 2003)

System: H. pylori
Experiment: In vitro minimum inhibitor concentrations (MICs) of metal-ligand complexes against H. pylori
Format: cell-based
Details: Example 1
Excerpt: In Vitro Minimum Inhibitor Concentrations (MICs) Using Metal-ligand Complexes
Study of MICs of Other Metal-ligands Against H. pylori

Row | Compound | MIC against H. pylori | MIC (Helicobacter pylori)
1 | O=C([O-])CC(O)(CC(=O)[O-])C(=O)[O-].O=C([O-])CC(O)(CC(=O)[O-])C(=O)[O-].[Zn+2].[Zn+2].[Zn+2] [Zinc Citrate, Zinc citrate] | 8 to 64 µg/L | 
2 | [O-][n+]1ccccc1[S-].[O-][n+]1ccccc1[S-].[Zn+2] [Zinc Salt] | >>64 μg/l | 
3 | O=C(O)CC(O)(CC(=O)O)C(=O)O [Citrate] |  | > 0.064 µg/mL
